Measured values reported in ChEMBL document CHEMBL4368926, “Arylpyridines, arylpyrimidines and related compounds as potential modulator agents of the VEGF, hTERT and c-Myc oncogenes” (Bioorg Med Chem, 2019).
pIC50: −log10 of the molar value.

Key:
HT-29 [1] = assay: Cytotoxicity against human HT-29 cells assessed as decrease in cell viability after 2 days by MTT assay; assay type: functional, cell-based; conditions: HT-29, 48 h
HEK293 = assay: Cytotoxicity against HEK293 cells assessed as decrease in cell viability after 2 days by MTT assay; assay type: ADME, cell-based; conditions: Homo sapiens, HEK293, 48 h
MCF7 = assay: Cytotoxicity against human MCF7 cells assessed as decrease in cell viability after 2 days by MTT assay; assay type: functional, cell-based; conditions: MCF7, 48 h
[2] = Selectivity index, ratio of IC50 for HEK293 cells to IC50 for human MCF7 cells; conditions: HEK293 cells versus MCF7 cells
HT-29 [3] = assay: Down-regulation of VEGFRA mRNA expression in human HT-29 cells assessed as VEGFRA mRNA level at 160 uM after 48 hrs by RT-qPCR analysis (reference value: 100%); assay type: functional
HT-29 [4] = assay: Down-regulation of c-Myc protein expression in human HT-29 cells assessed as c-Myc protein level at 160 uM after 48 hrs by ELISA (reference value: 100%); assay type: functional
HT-29 [5] = assay: Down-regulation of c-Myc mRNA expression in human HT-29 cells assessed as c-Myc mRNA level at 160 uM after 48 hrs by RT-qPCR analysis (reference value: 100%); assay type: functional
HT-29 [6] = assay: Down-regulation of hTERT mRNA expression in human HT-29 cells assessed as hTERT mRNA level at 160 uM after 48 hrs by RT-qPCR analysis (reference value: 100%); assay type: functional
HT-29 [7] = assay: Down-regulation of VEGFA protein expression in human HT-29 cells assessed as VEGFA protein level at 160 uM after 48 hrs by ELISA (reference value: 100%); assay type: functional
[8] = Selectivity index, ratio of IC50 for HEK293 cells to IC50 for human HT-29 cells; assay type: toxicity; conditions: HEK293 cells versus HT-29 cells, read-out: Ratio IC50
HT-29 [9] = assay: Down-regulation of VEGFRA mRNA expression in human HT-29 cells assessed as VEGFRA mRNA level at 20 uM after 48 hrs by RT-qPCR analysis (reference value: 100%); assay type: functional
HT-29 [10] = assay: Down-regulation of VEGFA protein expression in human HT-29 cells assessed as VEGFA protein level at 40 uM after 48 hrs by ELISA (reference value: 100%); assay type: functional
HT-29 [11] = assay: Down-regulation of c-Myc mRNA expression in human HT-29 cells assessed as c-Myc mRNA level at 40 uM after 48 hrs by RT-qPCR analysis (reference value: 100%); assay type: functional
HT-29 [12] = assay: Down-regulation of hTERT mRNA expression in human HT-29 cells assessed as hTERT mRNA level at 40 uM after 48 hrs by RT-qPCR analysis (reference value: 100%); assay type: functional
HT-29 [13] = assay: Down-regulation of c-Myc protein expression in human HT-29 cells assessed as c-Myc protein level at 40 uM after 48 hrs by ELISA (reference value: 100%); assay type: functional
HT-29 [14] = assay: Down-regulation of VEGFA protein expression in human HT-29 cells assessed as VEGFA protein level at 20 uM after 48 hrs by ELISA (reference value: 100%); assay type: functional
HT-29 [15] = assay: Down-regulation of hTERT mRNA expression in human HT-29 cells assessed as hTERT mRNA level at 20 uM after 48 hrs by RT-qPCR analysis (reference value: 100%); assay type: functional
HT-29 [16] = assay: Down-regulation of c-Myc protein expression in human HT-29 cells assessed as c-Myc protein level at 20 uM after 48 hrs by ELISA (reference value: 100%); assay type: functional
HT-29 [17] = assay: Down-regulation of c-Myc mRNA expression in human HT-29 cells assessed as c-Myc mRNA level at 20 uM after 48 hrs by RT-qPCR analysis (reference value: 100%); assay type: functional

Row | Structure (SMILES) | pIC50 (HT-29 [1]) | pIC50 (HEK293) | pIC50 (MCF7) | selectivity ratio [2] | selectivity ratio [8] | further results
1 | c1ccc(-c2cncnc2)cc1 | < 3.40 | < 3.40 | 5.15 | > 50 | – | –
2 | COc1ccc(N2CCOCC2)cc1 | 3.74 | < 3.40 | 4.14 | 7 | 3 | Activity (HT-29 [3]): 66%; Activity (HT-29 [4]): 100%; Activity (HT-29 [5]): 96%; Activity (HT-29 [6]): 63%; Activity (HT-29 [7]): 64%
3 | COc1ccc(-c2cccnc2)cc1OC | < 3.40 | < 3.40 | 3.65 | > 2 | – | –
4 | c1ccc(N2CCOCC2)cc1 | 3.62 | < 3.40 | 3.92 | 5 | 3 | Activity (HT-29 [3]): 79%; Activity (HT-29 [4]): 95%; Activity (HT-29 [5]): 67%; Activity (HT-29 [6]): 57%; Activity (HT-29 [7]): 79%
5 | COc1ccc(-c2ccccn2)c(OC)c1 | < 3.40 | 3.63 | < 3.40 | < 1 | < 1 | –
6 | COc1ccc(-c2ccccn2)cc1OC | 4.25 | 3.77 | 3.68 | < 1 | 3 | Activity (HT-29 [9]): 8%; Activity (HT-29 [10]): 48%; Activity (HT-29 [11]): 38%; Activity (HT-29 [12]): 20%; Activity (HT-29 [13]): 100%
7 | Oc1ccccc1-c1ncccn1 | < 3.40 | < 3.40 | 4.39 | 14 | – | –
8 | COc1ccc(-c2ncccn2)c(OC)c1 | 4.52 | 4.70 | 3.89 | < 1 | < 1 | Activity (HT-29 [14]): 48%; Activity (HT-29 [9]): 33%; Activity (HT-29 [15]): 85%; Activity (HT-29 [16]): 63%; Activity (HT-29 [17]): 18%
9 | COc1cccc(N2CCCC2)c1 | 3.51 | 3.68 | 4.29 | 3 | 3 | –
10 | c1ccc(N2CCCC2)cc1 | < 3.40 | < 3.40 | < 3.40 | – | – | –
11 | COc1ccc(N2CCCCC2)cc1 | 3.92 | 4.00 | 4.15 | 2 | – | –
12 | COc1ccc(-c2cncnc2)cc1OC | < 3.40 | < 3.40 | 3.70 | 2 | – | –
13 | COc1ccc(-c2ncccn2)cc1OC | < 3.40 | < 3.40 | 4.32 | > 9 | – | –
14 | COc1ccc(-c2cncnc2)c(OC)c1 | < 3.40 | < 3.40 | < 3.40 | – | – | –
15 | Oc1ccccc1-c1cncnc1 | 3.42 | 4.05 | 4.21 | 2 | < 1 | –
16 | COc1cccc(N2CCOCC2)c1 | 3.80 | < 3.40 | 4.00 | 5 | 3 | Activity (HT-29 [3]): 54%; Activity (HT-29 [4]): 100%; Activity (HT-29 [5]): 62%; Activity (HT-29 [6]): 72%; Activity (HT-29 [7]): 50%
17 | C=CCc1ccc(O)c(-c2ccc(O)c(CC=C)c2)c1 [HONOKIOL] | 4.60 | 4.40 | 4.46 | 2 | 2 | Activity (HT-29 [14]): 55%; Activity (HT-29 [9]): 36%; Activity (HT-29 [15]): 45%; Activity (HT-29 [16]): 53%; Activity (HT-29 [17]): 45%
